Results: US5621113A, “4-[(thien-2-yl)methyl]-imidazole analgesics” (priority 1996, dated 1997)
Counter-ions that a name gives are not always drawn. Like-named read-outs stand apart in the source and are kept apart here.

Key:
[1] = target: T1, Alpha2D adrenergic receptor (Rattus norvegicus, UniProt P22909); experiment: Alpha2D adrenergic receptor binding assay (3H-para-aminoclonidine, rat cortex synaptic membranes); design: species or system rat (male Wistar)
T1 construct: The cortex is dissected out and homogenized in 20 volumes of HEPES sucrose; from tissue; host or cells: rat brain cortex, synaptic membrane fraction (male Wistar rats, Charles River)
T1 sequence (P22909 1-465): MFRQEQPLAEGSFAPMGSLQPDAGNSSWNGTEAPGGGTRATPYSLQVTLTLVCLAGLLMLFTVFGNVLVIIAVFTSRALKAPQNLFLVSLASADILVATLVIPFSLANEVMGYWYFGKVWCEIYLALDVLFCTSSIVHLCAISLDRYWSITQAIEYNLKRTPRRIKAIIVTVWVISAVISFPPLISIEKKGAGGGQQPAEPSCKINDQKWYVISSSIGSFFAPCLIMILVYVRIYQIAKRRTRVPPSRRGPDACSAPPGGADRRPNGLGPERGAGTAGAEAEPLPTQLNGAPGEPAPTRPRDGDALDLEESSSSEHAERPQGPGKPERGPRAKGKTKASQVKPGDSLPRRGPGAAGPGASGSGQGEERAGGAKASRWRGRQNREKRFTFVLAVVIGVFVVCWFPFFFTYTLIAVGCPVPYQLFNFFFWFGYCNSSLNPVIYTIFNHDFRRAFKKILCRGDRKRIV
Protocol: Alpha2D adrenergic receptor binding assay
Male, Wistar rats (150-250 g, VAF, Charles River, Kingston, N.Y.) are sacrificed by cervical dislocation and their brains removed and placed immediately in ice cold HEPES buffered sucrose. The cortex is dissected out and homogenized in 20 volumes of HEPES sucrose in a Teflon®-glass homogenizer. The homogenate is centrifuged at 1000 g for 10 min, and the resulting supernatant centrifuged at 42,000 g for 10 min. The resulting pellet is resuspended in 30 volumes of 3 mM potassium phosphate buffer, pH 7.5, preincubated at 25° C. for 30 min and recentrifuged. The resulting pellet is resuspended as described above and used for the receptor binding assay. Incubation is performed in test tubes containing phosphate buffer, 2.5 mM MgCl2, aliquots of the synaptic membrane fraction, the ligand ^3 H-para-aminoclonidine and test drug at 25° C. for 20 min. The incubation is terminated by filtration of the tube contents through glass fiber filter sheets. Following washing of the sheets with 10 mM HEPES buffer, the adhering radioactivity is quantified by liquid scintillation spectrometry.
Binding of the test drug to the receptor is determined by comparing the amount of radiolabeled ligand bound in control tubes without drug to the amount of radiolabeled ligand bound in the presence of the drug. Dose-response data are analyzed with LIGAND, a nonlinear curve fitting program designed specifically for the analysis of ligand binding data. This assay is described by Simmons, R. M. A., and Jones, D. J., Binding of [^3 H-]prazosin and [^3 H-]p-aminoclonidine to α-Adrenoceptors in Rat Spinal Cord, Brain Research 445:338-349, 1988.

[2] = system: acetylcholine bromide-induced abdominal constriction response; experiment: Mouse Acetylcholine Bromide-Induced Abdominal Constriction Assay; type: in vivo; conditions: for inhibition in vivo at 30 mg/kg / ED50: Mus musculus; for inhibition in vivo at 30 mg/kg: po; for ED50: 0.5 h, oral, 30 minutes before acetylcholine bromide 5.5 mg/kg i.p., dose producing 50% analgesia
Protocol: Mouse Acetylcholine Bromide-Induced Abdominal Constriction Assay
The mouse acetylcholine bromide-induced abdominal constriction assay, as described by Collier et al. in Brit. J. Pharmacol. Chem. Ther., 32: 295-310, 1968, with minor modifications was used to assess analgesic potency of the compounds herein. The test drugs or appropriate vehicle were administered orally (p.o.) and 30 minutes later the animal received an intraperitoneal (i.p.) injection of 5.5 mg/kg acetylcholine bromide (Matheson, Coleman and Bell, East Rutherford, N.J.). The mice were then placed in groups of three into glass bell jars and observed for a ten minute observation period for the occurrence of an abdominal constriction response (defined as a wave of constriction and elongation passing caudally along the abdominal wall, accompanied by a twisting of the trunk and followed by extension of the hind limbs). The percent inhibition of this response to a nociceptive stimulus (equated to % analgesia) was calculated as follows: The % Inhibition of response, i.e., % analgesia is equal to the difference between the number of control animals response and the number of drug-treated animals response times 100 divided by the number of control animals responding.
At least 15 animals were used for control and in each of the drug treated groups. At least three doses were used to determine each dose response curve and ED50 (that dose which would produce 50% analgesia). The ED50 values and their 95% fiducial limits were determined by a computer assisted probit analysis.

[3] = @ 30 mpk (route not given; method: orally)
[4] = displacement of 3H-para-aminoclonidine, rat cortex membranes, 25° C., 20 min, read-out: Ki

Row | Structure (SMILES) | Ki [1] [nM] | ED50 [2] [mg/kg] | other results
1 | Brc1csc(Cc2c[nH]cn2)c1 [Cp-9, 4-[-(4-Bromothien-2-yl)methyl]1H-imidazole Hydrochloride] | 1.4 | – | inhibition in vivo at 30 mg/kg ([2]; @ 30 mpk/po): 80%
2 | CCC(c1c[nH]cn1)c1sccc1C (stereo not shown) [reference compound] | 8.3 | – | inhibition in vivo at 30 mg/kg [2, 3]: 100%
3 | c1csc(Cc2c[nH]cn2)c1 [reference compound] | 8.7 | – | inhibition in vivo at 30 mg/kg [2, 3]: 60%
4 | Cc1ccsc1C(C)c1c[nH]cn1.Cl (stereo not shown) [Cp-2, 4-[1-(3-methylthien-2-yl)ethyl]-1H-imidazole hydrochloride] | 2.1 | 1.4 | –
5 | Cc1ccc(Cc2c[nH]cn2)s1 [reference compound] | 3.6 | – | inhibition in vivo at 30 mg/kg [2, 3]: 33%
6 | CC(c1c[nH]cn1)c1sccc1Br.Cl (stereo not shown) [Cp-4, 4-[1-(3-Bromothien-2-yl)-ethyl]-1H-imidazole Hydrochloride] | 0.96 | 2.1 | –
7 | Cc1csc(Cc2c[nH]cn2)c1C [Cp-5, 4-[(3,4-dimethylthien-2-yl)methyl]-1H-imidazole hydrochloride] | 0.17 | – | inhibition in vivo at 30 mg/kg ([2]; @ 30 mpk/po): 100%
8 | Cc1csc(C(C)c2c[nH]cn2)c1C (stereo not shown) [Cp-6, 4-[-(3,4-Dimethylthien-2-yl)ethyl]-1H-imidazole Fumarate] | 0.75 | – | inhibition in vivo at 30 mg/kg ([2]; @ 30 mpk/po): 87%
9 | Brc1csc(Cc2c[nH]cn2)c1Br [Cp-7, 4-[-(3,4-dibromothien-2-yl)methyl]-1H-imidazole fumarate] | 0.43 | – | inhibition in vivo at 30 mg/kg ([2]; @ 30 mpk/po): 80%
10 | CC(C)=C(c1c[nH]cn1)c1sccc1C [drawing 24, reference compound] | – | – | Ki [1, 4]: 335 nM; Mouse Abdominal Constriction % Inhibition [2, 3]: 47%
11 | Cc1ccsc1Cc1c[nH]cn1.Cl [Cp-1, 4-[(3-Methylthien-2-yl)methyl]-1H-imidazole Hydrochloride] | 0.45 | 0.94 | –
12 | Brc1ccsc1Cc1c[nH]cn1.Cl [Cp-3, 4-[(3-Bromothien-2-yl)methyl]-1H-imidazole Hydrochloride] | 0.35 | 1.7 | –
13 | CC(c1c[nH]cn1)c1scc(Br)c1Br (stereo not shown) [Cp-8, 4-[(3,4-dibromothien-2-yl)ethyl]-1H-imidazole fumarate] | 0.07 | 5.7 | –
14 | CC(C)=C(c1c[nH]cn1)c1sccc1C [drawing 25, reference compound] | – | – | Ki [1, 4]: 1000 nM; Mouse Abdominal Constriction % Inhibition [2, 3]: 73%
